Results as given in US20130203823A1, “STABLE TOPICAL COMPOSITIONS FOR 1,2,4-THIADIAZOLE DERIVATIVES” (JANSSEN PHARMACEUTICAL, INC., priority 2009, published 2013).

Experiments:
[1] = In vitro skin permeation study, cadaver skin finite dose technique, Franz diffusion cell; format: in vitro ADME, human
Procedure: The cadaver skin finite dose technique was used for the studies. Split thickness human cadaver trunk skin was obtained from skin bank and stored in a water-impermeable plastic bag at about −70° C. Prior to each experiment, skin was thawed in water bath at about 37° C., then cut into sections large enough to fit on the Franz diffusion cell. The diffusion cells were mounted in a diffusion apparatus and filled with a receptor solution of ethanol/water/formic acid (25/75/0.3), which was stirred at about 600 RPM and maintained at about 32° C. The skin was mounted onto the diffusion cell, where the stratum corneum side faced the donor compartment and the dermal side faced the receiving compartment. About 10 μl per cm^2 of the composition was applied to the skin using a pipette. The dose was spread throughout the skin surface with a Teflon tip of the pipette. After about 4, 8, 12 and 24 hrs, the receptor solution was removed and replaced with fresh receptor solution. An aliquot was taken for analysis. The skin surface was washed with about 0.5 ml of a solvent mixture of methanol/water/formic acid (90/10/0.3). The solvent mixture was filtered and an aliquot was taken for analysis. Subsequently, the dermis and epidermis were separated and Compound IIa was extracted using the solvent mixture. The solvent mixture was filtered and an aliquot was taken for analysis. Samples were analyzed using HPLC.

[2] = Stability of the compound in the composition on storage, concentration by HPLC versus initial concentration; format: physicochemical
Text: The compositions of the present invention have desired and improved properties, including the extended shelf-life or stability and the suitable commercial production. As used herein, the terms ‘stable composition’, ‘stable formulation’, ‘composition with extended shelf-life’ or variants thereof refer to the compound of Formula I, II, or III (and most preferably Compounds Ia, IIa, and IIIa) in the composition is stable. The stability or shelf-life of the compound may be determined by measuring the concentration and any degradation product of the compound of Formula I, II or III in the compositions using high performance liquid chromatography (HPLC). As commonly referred in the art, the compound is considered to be stable or being stabilized when the concentration of the compound retains at least about 90% to at least about 110%, preferably at least about 95% to at least about 105%, of the original concentration of the compound.
By way of example, the stability of the compound of Formula I, II, or III is determined using HPLC equipped with a temperature-controlled autosampler, a thermostatic column compartment, and an UV detector at about 326 nm (Agilent 1100, Waters alliance HPLC). A Zorbax C18 column is used for analyzing Compound Ia and a YMC-Pack Hydrosphere C18 column is used for analyzing Compound IIa. A binary linear gradient of mobile phases A and B is used. The mobile phase A may consist of about 0.2% trifluroacetic acid in water and the mobile phase B may consist of about 0.2% trifluroacetic acid in methanol. The gradient conditions are provided below.
The stability of Compound Ia was examined by measuring the concentration of Compound Ia using HPLC. The concentration of the compound in the composition stored at various temperatures for a period of time was compared to the initial concentration of the compound prior to storage.

[3] = aqueous gel formulation B, 0.30% w/w Compound IIa
[4] = aqueous gel formulation B, 0.60% w/w Compound IIa
[5] = aqueous gel formulation B, 1.2% w/w Compound IIa
[6] = cream composition E (as titled), 0.30% w/w Compound IIa
[7] = cream composition E (as titled), 0.60% w/w Compound IIa
[8] = cream composition E (as titled), 1.2% w/w Compound IIa
[9] = cream composition E (as titled), 2.4% w/w Compound IIa

Compound: COc1ccccc1-c1nc(=Nc2ccccc2)sn1-c1ccccc1OC [Compound IIa, [2-(2-methoxyphenyl)-3-(2-methoxyphenyl)-2H-[1,2,4]-thiadiazol-5-ylidene]-phenylamine]
- Skin penetration (in words) ([1]; aqueous gel formulation B): able to penetrate into epidermis, dermis and receptor solution
- Total amount permeated into Dermis [1, 3]: 0.004 µg
- Total amount permeated into Epidermis [1, 3]: 0.361 µg
- Total amount permeated into Receptor solution [1, 3]: 0.020 µg
- Total amount permeated into Dermis [1, 4]: 0.007 µg
- Total amount permeated into Epidermis [1, 4]: 0.164 µg
- Total amount permeated into Receptor solution [1, 4]: 0.045 µg
- Total amount permeated into Dermis [1, 5]: 0.007 µg
- Total amount permeated into Epidermis [1, 5]: 0.537 µg
- Total amount permeated into Receptor solution [1, 5]: 0.074 µg
- Total penetration amount in epidermis, dermis and receptor solution versus concentration (in words) ([1]; as the concentration of Compound IIa increased in the formulations): increased
- Skin penetration (in words) ([1]; cream composition D): able to penetrate into epidermis, dermis and receptor solution
- Total amount permeated into Dermis [1, 6]: 0.003 µg
- Total amount permeated into Epidermis [1, 6]: 0.279 µg
- Total amount permeated into Receptor solution [1, 6]: 0.015 µg
- Total amount permeated into Dermis [1, 7]: 0.015 µg
- Total amount permeated into Epidermis [1, 7]: 0.357 µg
- Total amount permeated into Receptor solution [1, 7]: 0.025 µg
- Total amount permeated into Dermis [1, 8]: 0.014 µg
- Total amount permeated into Epidermis [1, 8]: 0.428 µg
- Total amount permeated into Receptor solution [1, 8]: 0.025 µg
- Total amount permeated into Dermis [1, 9]: 0.028 µg
- Total amount permeated into Epidermis [1, 9]: 0.681 µg
- Total amount permeated into Receptor solution [1, 9]: 0.070 µg
- % of Initial Concentration ([2]; aqueous gel composition B, 0.3% Compound IIa, 12 months, 5° C.): 99.47%
- % of Initial Concentration ([2]; aqueous gel composition B, 0.3% Compound IIa, 12 months, 25° C.): 95.60%
- % of Initial Concentration ([2]; aqueous gel composition B, 0.3% Compound IIa, 24 months, 5° C.): 97.92%
- % of Initial Concentration ([2]; aqueous gel composition B, 0.3% Compound IIa, 24 months, 25° C.): 89.49%
- % of Initial Concentration ([2]; aqueous gel composition B, 0.6% Compound IIa, 12 months, 25° C.): 93.90%
- % of Initial Concentration ([2]; aqueous gel composition B, 0.6% Compound IIa, 24 months, 5° C.): 97.02%
- % of Initial Concentration ([2]; aqueous gel composition B, 0.6% Compound IIa, 24 months, 25° C.): 92.69%
- % of Initial Concentration ([2]; aqueous gel composition B, 1.2% Compound IIa, 12 months, 25° C.): 95.49%
- % of Initial Concentration ([2]; aqueous gel composition B, 1.2% Compound IIa, 24 months, 5° C.): 97.56%
- % of Initial Concentration ([2]; aqueous gel composition B, 1.2% Compound IIa, 24 months, 25° C.): 93.87%
- % of Initial Concentration ([2]; aqueous gel composition B, 1.5% Compound IIa, 12 months, 5° C.): 100.68%
- % of Initial Concentration ([2]; aqueous gel composition B, 1.5% Compound IIa, 12 months, 25° C.): 99.03%
- % of Initial Concentration ([2]; aqueous gel composition B, 2.4% Compound IIa, 12 months, 25° C.): 101.30%
- Stability in the composition (in words) ([2]; aqueous gel composition B, various amounts of Compound IIa, ambient condition): stable at ambient condition
- Time for which the compound was stable ([2]; cream composition C (so in the source), ambient condition): at least 6 months
- Time for which the compound was stable ([2]; cream composition C (so in the source), refrigerated condition): at least 18 months
- % of Initial Concentration ([2]; cream composition D, 1.2% Compound IIa, 6 months, 5° C.): 100.0%
- % of Initial Concentration ([2]; cream composition D, 1.2% Compound IIa, 6 months, 25° C.): 94.1%
- % of Initial Concentration ([2]; cream composition D, 1.2% Compound IIa, 12 months, 5° C.): 98.3%
- % of Initial Concentration ([2]; cream composition D, 1.2% Compound IIa, 18 months, 5° C.): 100.8%
- % of Initial Concentration ([2]; emulsion composition E, 3 months, 5° C.): 101.40%
- % of Initial Concentration ([2]; emulsion composition E, 3 months, 25° C.): 98.01%
- % of Initial Concentration ([2]; emulsion composition E, 6 months, 5° C.): 100.11%
- % of Initial Concentration ([2]; emulsion composition E, 6 months, 25° C.): 95.61%
- % of Initial Concentration ([2]; emulsion composition E, 9 months, 5° C.): 100.20%
- % of Initial Concentration ([2]; emulsion composition E, 13 months, 5° C.): 100.54%
- Time for which the compound was stable ([2]; emulsion composition E, refrigerated condition): at least 13 months

Compound: COc1ccccc1-c1nc(Nc2ccccc2)s[n+]1-c1ccccc1OC.[Br-] [Compound Ia, 2-(2-methoxyphenyl)-3-(2-methoxyphenyl)-5-phenylamino-[1,2,4]-thiadiazol-2-ium]
- Stability in the composition (in words) ([2]; aqueous gel composition A, 0.3% Compound Ia, ambient condition): stable at ambient condition
- Time for which the compound was stable ([2]; emulsion composition F, refrigerated condition): at least 4 weeks
